Test results as given in patent publication US20250257058A1, “COMPOSITIONS AND METHODS FOR INHIBITING CARP-1 BINDING TO NEMO” (The United States Government as represented by the …, priority 2022, published 2025).
“Also recorded” adds a separate entry of the source. Where two headings read alike, the source gives them in different places.

What was measured:
MDA-MB-468 cells = test: MTT cytotoxicity assay in MDA-MB-468 cells; assay type: cell-based; conditions: for Cell viability inhibition in combination with cisplatin compared with SNI-1: MDA-MB-468, 5 μM compound + 20 μM cisplatin; for Cell viability inhibition (%) (Single agent) MDA-MB-468: MTT, SNI analogs 5 μM, doxorubicin 5 μM, cisplatin 20 μM; for Cell viability inhibition as single agent compared with SNI-1: MDA-MB-468, single agent; for Cytotoxicity in combination with doxorubicin compared with SNI-1: MDA-MB-468, 5 μM compound + 5 μM doxorubicin
Procedure: (§1) The cell lines were cultured in Dulbecco's Modified Eagle's Medium and Roswell Park Memorial Institute (RPMI) as per ATCC recommendation. Media was supplemented with 10% FBS, 2 mM L-glutamine, 100 U/ml penicillin, and 100 mg/ml streptomycin and incubated at 37° C. in a 5% CO2 air humidified atmosphere.
(§2) For the in vitro cytotoxicity studies, cells were seeded in 96-well plates with approximately 5000-8000 cells per well, depending upon the cell's exponential growth.
(§3) For cytotoxic response, cells were analyzed using the MTT reagent dissolved in PBS (1 mg/ml) at pH 7.4. […] Cells were then incubated again for 2-4 hours at 37° C., after which time the MTT reagent was added and the cells were incubated an additional 2 hours. Following this, the media was supplanted by DMSO, and the plates were put on a shaker for 15 min. The absorbance was measured at 570 nm using a high-performance multi-mode plate reader (Synergy 2, BioTek). The percentage of surviving cells was calculated by comparing the treated cells' absorbance and legitimate controls cells. The same procedure was followed for all the cell lines and later calculate the percentage of viable cells independently.

MDA-MB-231 cells [1] = test: MTT cytotoxicity assay in MDA-MB-231 cells; assay type: cell-based; conditions: for cytotoxicity at 5 µM: Homo sapiens; for Inhibition of viabilities as single agent compared with SNI-1: 24 h or 48 h
Procedure: Here, SNI-1 analogs were synthesized by incorporating combinations of substitutions on Rings A and C (FIG. 8). The efficacy of these compounds was analyzed in two different cell lines: MDA-MB-468 and MDA-MB-231. […] The duration of treatment time was 24 h for […] and 24 h and 48 h for MDA-MB-231 cells. These cells are a more aggressive form of TNBC cells. It expresses both epidermal growth factor (EGF) and transforming growth factor-alpha (TGF alpha) receptors.

HCC-1937 cells [2] = test: MTT cytotoxicity assay in HCC-1937 cells (BRCA-1 mutation); conditions: 24 h
Procedure: as §1, §2, §3
(§4) Each histogram's columns indicate the percent of live/viable cells relative to their DMSO-treated controls.

HCC-1937 cells [3] = conditions: human, 24 h, 5 μM
Procedure: as §1, §2, §3, §4

4T1 TNBC = conditions: cited from earlier work
MDA-MB-231 cells [4] = conditions: MDA-MB-231, 4T1 and resistant TNBC cells; 5 μM SNI-1 + 20 μM cisplatin; cited from earlier work
CARP-1 and NEMO binding = target: T1, CARP-1 and NEMO binding (Homo sapiens, UniProt Q8IX12); conditions: biochemical mechanism; cited from earlier work
T1 sequence (Q8IX12 1-1150): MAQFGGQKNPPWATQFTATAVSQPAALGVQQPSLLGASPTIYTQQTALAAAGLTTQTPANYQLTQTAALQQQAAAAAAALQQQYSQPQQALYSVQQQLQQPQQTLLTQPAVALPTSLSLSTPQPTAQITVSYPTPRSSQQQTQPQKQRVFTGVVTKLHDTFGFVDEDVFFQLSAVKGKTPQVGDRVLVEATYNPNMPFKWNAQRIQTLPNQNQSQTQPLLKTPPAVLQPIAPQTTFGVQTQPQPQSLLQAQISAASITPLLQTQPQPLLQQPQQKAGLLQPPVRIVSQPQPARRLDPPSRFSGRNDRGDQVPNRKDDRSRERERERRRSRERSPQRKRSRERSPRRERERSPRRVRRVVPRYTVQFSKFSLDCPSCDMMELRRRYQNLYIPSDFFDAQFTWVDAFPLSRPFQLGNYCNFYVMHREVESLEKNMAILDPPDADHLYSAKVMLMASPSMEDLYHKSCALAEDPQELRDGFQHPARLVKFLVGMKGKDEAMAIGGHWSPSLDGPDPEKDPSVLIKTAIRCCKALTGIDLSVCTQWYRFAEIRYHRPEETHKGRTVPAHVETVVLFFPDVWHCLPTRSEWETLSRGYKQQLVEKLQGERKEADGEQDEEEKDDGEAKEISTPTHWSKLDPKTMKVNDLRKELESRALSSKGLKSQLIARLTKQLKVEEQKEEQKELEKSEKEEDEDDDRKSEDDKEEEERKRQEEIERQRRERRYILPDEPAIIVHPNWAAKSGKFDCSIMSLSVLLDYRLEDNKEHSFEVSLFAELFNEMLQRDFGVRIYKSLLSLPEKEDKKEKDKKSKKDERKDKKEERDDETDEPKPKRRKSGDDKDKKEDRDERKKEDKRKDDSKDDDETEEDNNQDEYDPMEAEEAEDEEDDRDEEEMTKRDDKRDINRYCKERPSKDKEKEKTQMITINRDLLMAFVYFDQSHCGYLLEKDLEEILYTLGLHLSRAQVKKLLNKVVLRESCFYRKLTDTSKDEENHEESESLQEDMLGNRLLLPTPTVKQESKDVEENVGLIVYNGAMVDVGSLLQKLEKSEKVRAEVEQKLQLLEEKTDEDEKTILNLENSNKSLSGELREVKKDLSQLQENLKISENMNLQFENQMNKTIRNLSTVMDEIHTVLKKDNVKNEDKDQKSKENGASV

[5] = Homo sapiens, MDA-MB-468, 5 μM compound + 5 μM doxorubicin, 24 h, read-out: Cell viability inhibition (%) with Doxorubicin MDA-MB-468
[6] = MDA-MB-231, 5 μM compound + 5 μM doxorubicin, 24 h, read-out: Cell viability inhibition (%) with Doxorubicin MDA-MB-231
[7] = single agent, SNI analogs 5 μM, doxorubicin 5 μM

Row | Structure (SMILES) | Cell viability inhibition in combination with cisplatin compared with SNI-1 (MDA-MB-468 cells; 24 h) | Cell viability inhibition (%) (Single agent) MDA-MB-468 (MDA-MB-468 cells; single agent, 24 h) | cytotoxicity at 5 µM (MDA-MB-468 cells; [5]) [%] | Cell viability inhibition (%) Single-agent HCC-1937 (HCC-1937 cells [3]) [%] | cytotoxicity at 5 µM (MDA-MB-231 cells [1]; [6]) [%] | Cell viability inhibition (%) Single-agent MDA-MB-231 (MDA-MB-231 cells [1]; [7]) [%] | other results
1 | COc1cccc2c1C(=O)c1c(O)c3c(c(O)c1C2=O)C[C@@](O)(C(=O)CO)C[C@@H]3O[C@H]1C[C@H](N)[C@H](O)[C@H](C)O1 [Doxorubicin, reference compound] |  |  |  |  |  |  | cytotoxicity at 5 µM (MDA-MB-468 cells; Homo sapiens, MDA-MB-468, 24 h, read-out: Cell viability inhibition (%) (Single agent) MDA-MB-468): ~39%; cytotoxicity at 5 µM (MDA-MB-231 cells [1]; MDA-MB-231, single agent, SNI analogs 5 μM, doxorubicin 5 μM, read-out: Cell viability inhibition (%) Single-agent MDA-MB-231): ~56%
2 | O=C(CSc1nc(-c2ccccc2)cs1)c1ccc(O)c(O)c1 [GL-216] | viability inhibition equal to or better than parent SNI-1 | 10 |  |  |  |  | Cell viability inhibition (%) with Doxorubicin MDA-MB-468 (MDA-MB-468 cells; 5 μM compound + 5 μM doxorubicin, 24 h): ~80%; Cell viability inhibition (%) with Cisplatin HCC-1937 (HCC-1937 cells [2]; 5 μM compound + 20 μM cisplatin): ~46%; Cell viability inhibition (%) Single-agent HCC-1937 (HCC-1937 cells [2]; single agent, SNI analogs 5 μM, cisplatin 20 μM): ~5%
3 | CCOC(=O)c1ccc(-n2nnnc2SCC(=O)c2ccc(O)c(O)c2)cc1 [GL-251, Ethyl 4-(5-((2-(3,4-dihydroxyphenyl)-2-oxoethyl)thio)-1H-tetrazol-1-yl)benzoate] |  |  |  |  |  |  | Cell viability inhibition as single agent compared with SNI-1 (MDA-MB-468 cells; 5 μM, 24 h): greater cell viability inhibition as a single agent when compared to SNI-1
4 | NS(=O)(=O)c1ccc(-n2nnnc2SCC(=O)c2ccc(O)c(O)c2)cc1 [GL-252, 4-(5-((2-(3,4-dihydroxyphenyl)-2-oxoethyl)thio)-1H-tetrazol-1-yl)benzenesulfonamide] | slightly higher viability inhibition compared with cisplatin and SNI-1 in combination or cisplatin alone; also recorded: viability inhibition equal to or better than parent SNI-1 | 18 | 62 | ~10 |  |  | Cell viability inhibition as single agent compared with SNI-1 (MDA-MB-468 cells; 5 μM, 24 h): greater cell viability inhibition as a single agent when compared to SNI-1
5 | Cc1ccc(-n2nnnc2SCC(=O)c2ccc3c(c2)OCCO3)cc1 [GL-268, 1-(2,3-dihydrobenzo[b][1,4]dioxin-6-yl)-2-((1-(p-tolyl)-1H-tetrazol-5-yl)thio)ethan-1-one] | viability inhibition equal to or better than parent SNI-1 |  |  |  |  |  | 
6 | Cc1ccc(-n2nnnc2SCC(=O)c2ccc(N3CCOCC3)cc2)cc1 [GL-269, 1-(4-morpholinophenyl)-2-((1-(p-tolyl)-1H-tetrazol-5-yl)thio)ethan-1-one] | much better activity in combination with cisplatin; also recorded: viability inhibition equal to or better than parent SNI-1 | 37 | 53 | ~10 |  |  | 
7 | COc1ccc(C(=O)CSc2nnnn2-c2ccc(C)cc2)cc1OC [GL-339, 1-(3,4-dimethoxyphenyl)-2-((1-(p-tolyl)-1H-tetrazol-5-yl)thio)ethan-1-one] | greater inhibition in combination with cisplatin |  |  |  |  |  | 
8 | O=C(CSc1nnnn1-c1ccc(Cl)cc1Cl)c1ccc(O)c(O)c1 [GL-341, 2-((1-(2,4-dichlorophenyl)-1H-tetrazol-5-yl)thio)-1-(3,4-dihydroxyphenyl)ethan-1-one] | greater inhibitory effect | ~3 | ~49 | ~6 | ~68 | ~21 | Cytotoxicity in combination with doxorubicin compared with SNI-1 (MDA-MB-468 cells; 24 h): slightly higher cytotoxicity; Efficacy in combination with cisplatin compared with SNI-1 (MDA-MB-231 cells [1]; MDA-MB-231, 5 μM compound + 20 μM cisplatin, 48 h): better efficacy when used in combination with cisplatin compared to SNI-1 and cisplatin itself; Inhibition of viabilities as single agent compared with SNI-1 (MDA-MB-231 cells [1]; MDA-MB-231, single agent, 5 μM): greater inhibition of viabilities than SNI-1
9 | O=C(CSc1nnnn1-c1ccc([N+](=O)[O-])cc1)c1ccc(O)c(O)c1 [GL-342, 1-(3,4-dihydroxyphenyl)-2-((1-(4-nitrophenyl)-1H-tetrazol-5-yl)thio)ethan-1-one] | greater inhibitory effect | ~22.27 | ~50 | ~21 | ~73 | ~23 | Extra loss of cell viability versus parent SNI-1 at 5 µM (MDA-MB-468 cells; Homo sapiens, MDA-MB-468 (FIG. 9), single agent, 5 μM, 24 h, read-out: Greater loss of cell viability as compared to parent SNI-1): ~10%; Cytotoxicity in combination with doxorubicin compared with SNI-1 (MDA-MB-468 cells; 24 h): slightly higher cytotoxicity; Cell viability inhibition as single agent compared with SNI-1 (MDA-MB-468 cells; 5 μM, 24 h): more cell viability inhibition; Activity in combination with cisplatin compared with SNI-1 (HCC-1937 cells [2]; HCC-1937, 5 μM compound + 20 μM cisplatin): more cell viability inhibition than SNI-1 in combination with cisplatin; Inhibition of viabilities as single agent compared with SNI-1 (MDA-MB-231 cells [1]; MDA-MB-231, single agent, 5 μM): more cell viability inhibition; also recorded: greater inhibition of viabilities than SNI-1
10 | NS(=O)(=O)c1ccc(-n2nnnc2SCC(=O)c2ccc(N3CCOCC3)cc2)cc1 [GL-343, 4-(5-((2-(4-morpholinophenyl)-2-oxoethyl)thio)-1H-tetrazol-1-yl)benzenesulfonamide] |  | ~2 | ~57 | ~1 | ~79 | ~36 | cytotoxicity at 5 µM (MDA-MB-231 cells [1]; MDA-MB-231, single agent, 5 μM, read-out: Greater inhibition of cell viability when compared with SNI-1 as a single agent): ~30%; Cytotoxicity in combination with doxorubicin compared with SNI-1 (MDA-MB-231 cells [1]; MDA-MB-231, 5 μM compound + 5 μM doxorubicin, 24 h): much better cytotoxicity when compared with SNI-1; Inhibition of viabilities as single agent compared with SNI-1 (MDA-MB-231 cells [1]; MDA-MB-231, single agent, 5 μM): greater inhibition of viabilities than SNI-1
11 | Cc1ccc(-n2nnnc2SCC(=O)c2ccc(O)c(O)c2)cc1 [SNI-1, 1-(3,4-dihydroxyphenyl)-2-((1-(p-tolyl)-1H-tetrazol-5-yl)thio)ethan-1-one] |  | 10 | ~75 | 11 | ~77 | ~8 | Response as a single agent in the syngeneic 4T1 TNBC model (4T1 TNBC): failed its response; Loss of viability in combination with cisplatin (previous studies) (MDA-MB-231 cells [4]): significant loss of viability; Binding with CARP-1 and inhibition of its interaction with NEMO (CARP-1 and NEMO binding): binds with CARP-1 and inhibits its interaction with NEMO
